From patent publication US8765748B2, “Indazolyl, benzimidazolyl, benzotriazolyl substituted indolinone derivatives as kinase inhibitors useful in the treatment of cancer” (University Health Network, priority 2007, dated 2014)
Read-outs that look alike come from different tables or passages of the source.

Experiments:
Type in all cases: biochemical
[1] = target: T1, Aurora B (Homo sapiens, UniProt Q96GD4); assay: Aurora B Inhibition Assay (Z-Lyte); details: for inhibition at 10 µM: 10 μM compound, read-out: Aurora B relative inhibition percentage at a dose of 10 μM; for IC50: 128 μM ATP, 28 nM Aurora B, read-out: Aurora B IC50 Ranges
T1 construct: purchased Invitrogen PV3970
Protocol: (§1) Aurora B inhibition was determined using the Z-Lyte assay kit from Invitrogen. The assay was performed using the recommended manufacturer's instructions with 128 μM ATP and 28 nM Aurora B (Invitrogen cat #PV3970). The % inhibition values were determined according to the manufacturer's directions and IC50 values were obtained using a non-linear 4 point logistic curve fit (XLfit4, IDBS)

[2] = target: T2, Aurora A (Homo sapiens, UniProt O14965); assay: Aurora A Inhibition Assay (Z-Lyte); details: for inhibition at 10 µM: 10 μM compound, read-out: Aurora A relative inhibition percentage at a dose of 10 μM; for IC50: 20 μM ATP, 12 nM Aurora A, read-out: Aurora A IC50 Ranges
T2 construct: purchased Invitrogen PV3612
T2 sequence (O14965 1-403): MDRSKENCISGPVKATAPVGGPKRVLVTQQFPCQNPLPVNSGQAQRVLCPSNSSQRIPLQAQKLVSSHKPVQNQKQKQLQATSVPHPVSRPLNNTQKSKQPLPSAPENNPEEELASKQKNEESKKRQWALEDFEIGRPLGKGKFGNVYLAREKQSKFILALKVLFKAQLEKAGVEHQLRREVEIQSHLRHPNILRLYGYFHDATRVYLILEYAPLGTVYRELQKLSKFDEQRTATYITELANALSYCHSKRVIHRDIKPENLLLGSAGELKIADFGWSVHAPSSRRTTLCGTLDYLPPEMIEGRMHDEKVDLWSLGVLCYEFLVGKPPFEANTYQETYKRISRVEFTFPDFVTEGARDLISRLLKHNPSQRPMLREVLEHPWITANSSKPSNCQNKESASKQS
Protocol: as §1, with “Aurora A” for “Aurora B”, “with 20” for “with 128”, “and 12” for “and 28”, “cat #PV3612).” for “cat #PV3970).”

[3] = target: T3, PLK1 (Homo sapiens, UniProt P53350); assay: PLK1 Inhibition Assay (Z-Lyte); details: for IC50: 25 μM ATP, 8 nM PLK1, read-out: PLK1 IC50 Ranges; for inhibition at 10 µM: 10 μM compound, read-out: PLK1 relative inhibition percentage at a dose of 10 μM
T3 construct: purchased Invitrogen PV3501
Protocol: PLK1 inhibition was determined using the Z-Lyte assay kit from Invitrogen (cat #PV3802). […] The % inhibition values were determined according to the manufacturer's directions and IC50 values were obtained using a non-linear 4 point logistic curve fit (XLfit4, IDBS)

[4] = target: T4, PLK2 (Homo sapiens, UniProt Q9NYY3); assay: PLK2 Inhibition Assay (Z-Lyte); details: for inhibition at 10 µM: 10 μM compound, read-out: PLK2 relative inhibition percentage at a dose of 10 μM
T4 construct: purchased Invitrogen PV4204
Protocol: as §1, with “PLK2” for “Aurora B”, “Invitrogen (cat #PV3802).” for “Invitrogen.”, “60” for “128”, “133” for “28”, “#PV4204).” for “#PV3970).”

[5] = target: T5, human PLK4 (Homo sapiens, UniProt O00444); assay: PLK4 Inhibition Assay (indirect ELISA)
T5 construct: amino terminal GST fusion of residues 1-391 of human PLK4; made in house; host or cells: E. coli
T5 sequence (O00444 1-391): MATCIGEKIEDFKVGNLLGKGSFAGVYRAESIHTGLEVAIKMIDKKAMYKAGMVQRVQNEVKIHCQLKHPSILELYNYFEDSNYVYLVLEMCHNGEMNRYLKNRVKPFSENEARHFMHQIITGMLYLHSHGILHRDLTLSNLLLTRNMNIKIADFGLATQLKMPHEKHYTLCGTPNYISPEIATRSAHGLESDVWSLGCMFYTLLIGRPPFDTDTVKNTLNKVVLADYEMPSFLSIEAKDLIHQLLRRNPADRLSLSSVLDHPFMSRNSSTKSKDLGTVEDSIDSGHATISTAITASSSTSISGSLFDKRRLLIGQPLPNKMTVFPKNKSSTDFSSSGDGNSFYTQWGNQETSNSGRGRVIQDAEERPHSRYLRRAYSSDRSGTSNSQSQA
Outline: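 Dephosphorylated (lambda phosphatase) GST-PLK4 activity read by indirect ELISA. Compounds were pre-incubated with enzyme for 15 minutes before ATP was added. IC50 came from a non-linear 4-point logistic fit.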

[6] = 15 μM ATP, 4 nM GST-PLK4, read-out: PLK4 IC50 Ranges

T4 sequence (Q9NYY3 whole entry): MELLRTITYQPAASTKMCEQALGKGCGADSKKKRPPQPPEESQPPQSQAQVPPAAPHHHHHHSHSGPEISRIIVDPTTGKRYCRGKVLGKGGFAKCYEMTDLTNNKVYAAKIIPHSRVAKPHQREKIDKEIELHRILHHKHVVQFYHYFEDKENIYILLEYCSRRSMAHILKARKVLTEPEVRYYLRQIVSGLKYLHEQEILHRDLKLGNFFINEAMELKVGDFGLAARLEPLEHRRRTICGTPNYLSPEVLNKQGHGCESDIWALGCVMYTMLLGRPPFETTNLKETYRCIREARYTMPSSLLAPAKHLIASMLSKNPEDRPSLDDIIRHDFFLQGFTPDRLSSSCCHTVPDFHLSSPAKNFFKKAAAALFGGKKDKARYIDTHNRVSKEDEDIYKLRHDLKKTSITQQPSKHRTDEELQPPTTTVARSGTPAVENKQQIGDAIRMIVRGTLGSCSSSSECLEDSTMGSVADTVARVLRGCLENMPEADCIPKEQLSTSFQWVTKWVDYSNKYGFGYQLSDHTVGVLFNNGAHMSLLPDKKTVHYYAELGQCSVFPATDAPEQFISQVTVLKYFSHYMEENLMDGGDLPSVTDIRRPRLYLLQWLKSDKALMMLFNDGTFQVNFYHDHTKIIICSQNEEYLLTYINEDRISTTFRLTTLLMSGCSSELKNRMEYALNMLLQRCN
T1 sequence (Q96GD4 whole entry): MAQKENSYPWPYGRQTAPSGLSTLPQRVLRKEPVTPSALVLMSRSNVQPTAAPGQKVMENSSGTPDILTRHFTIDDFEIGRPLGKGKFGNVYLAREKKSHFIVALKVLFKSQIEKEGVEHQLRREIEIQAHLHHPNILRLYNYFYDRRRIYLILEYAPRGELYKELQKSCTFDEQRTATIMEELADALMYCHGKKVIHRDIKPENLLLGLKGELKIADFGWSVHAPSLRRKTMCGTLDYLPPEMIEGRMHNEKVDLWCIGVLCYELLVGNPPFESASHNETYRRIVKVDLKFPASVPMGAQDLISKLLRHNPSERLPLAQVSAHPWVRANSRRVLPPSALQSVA
T3 sequence (P53350 whole entry): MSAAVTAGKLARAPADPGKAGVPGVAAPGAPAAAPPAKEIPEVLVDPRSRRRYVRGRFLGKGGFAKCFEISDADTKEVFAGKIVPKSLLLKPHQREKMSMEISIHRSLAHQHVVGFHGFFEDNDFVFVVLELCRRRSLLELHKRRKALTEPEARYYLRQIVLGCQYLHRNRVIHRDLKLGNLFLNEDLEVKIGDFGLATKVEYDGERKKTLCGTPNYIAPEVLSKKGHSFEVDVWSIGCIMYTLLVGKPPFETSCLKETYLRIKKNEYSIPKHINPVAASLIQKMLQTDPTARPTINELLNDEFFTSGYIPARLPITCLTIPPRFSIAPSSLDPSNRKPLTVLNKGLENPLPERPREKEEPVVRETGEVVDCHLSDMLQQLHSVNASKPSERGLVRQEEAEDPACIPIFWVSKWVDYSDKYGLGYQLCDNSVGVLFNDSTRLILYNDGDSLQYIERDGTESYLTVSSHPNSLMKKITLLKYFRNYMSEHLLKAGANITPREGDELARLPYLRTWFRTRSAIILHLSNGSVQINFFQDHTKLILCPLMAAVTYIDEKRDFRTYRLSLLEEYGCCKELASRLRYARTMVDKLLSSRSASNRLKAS

SMILES | inhibition at 10 µM [1] [%] | inhibition at 10 µM [2] [%] | IC50 [3] [µM] | inhibition at 10 µM [4] [%] | IC50 [5, 6] [µM] | IC50 [1] [µM] | IC50 [2] [µM] | inhibition at 10 µM [3] [%] | IC50 ([4]; 60 μM ATP, 133 nM PLK2, read-out: PLK2 IC50 Ranges) [µM] | IC50 [5] [µM]
O=C1Nc2ccccc2C1=Cc1ccc2c(-c3ccc[nH]3)n[nH]c2c1 (mixture of isomers) [Example A89, (E and Z)-3-((3-(1H-pyrrol-2-yl)-1H-indazol-6-yl)methylene)indolin-2-one] | – | – | – | < 50 | < 5 | < 5 | < 5 | < 50 | – | –
CC(=O)Nc1cccc2c1NC(=O)/C2=C/c1ccc2c(/C=C/c3ccncc3)n[nH]c2c1 [Example A120, N-((E)-2-oxo-3-((3-((E)-2-(pyridin-4-yl)vinyl)-1H-indazol-6-yl)-methylene)indolin-7-yl)acetamide] | – | – | – | < 50 | < 5 | < 5 | < 5 | < 50 | – | –
Cc1ccc2c(c1)/C(=C\c1ccc3c(/C=C/c4ccncc4)n[nH]c3c1)C(=O)N2 [Example A85, (E)-5-methyl-3-((3-((E)-2-(pyridin-4-yl)vinyl)-1H-indazol-6-yl)methylene)indolin-2-one] | – | – | – | < 50 | < 5 | < 5 | < 5 | < 50 | – | –
O=C1Nc2cc(Cl)ccc2/C1=C\c1ccc2cn[nH]c2c1 [Example A36, (E)-3-((1H-indazol-6-yl)methylene)-6-chloroindolin-2-one] | – | – | 5 to 50 | < 50 | < 5 | < 5 | > 50 | – | – | –
O=C1Nc2ccccc2C1=Cc1ccc2c(-c3cccnc3)n[nH]c2c1 (mixture of isomers) [Example A93, (E and Z)-3-((3-(pyridin-3-yl)-1H-indazol-6-yl)methylene)indolin-2-one] | – | – | – | < 50 | < 5 | < 5 | < 5 | < 50 | – | –
O=C1Nc2ccccc2C1=Cc1ccc2c(CCc3ccncc3)n[nH]c2c1 (mixture of isomers) [Example A64, (E and Z)-3-((3-(2-(pyridin-4-yl)ethyl)-1H-indazol-6-yl)methylene)-indolin-2-one] | – | > 50 | – | < 50 | < 5 | < 5 | – | < 50 | – | –
O=C1Nc2c(cccc2C(F)(F)F)C1=Cc1ccc2cn[nH]c2c1 (mixture of isomers) [Example A47, (E and Z)-3-((1H-indazol-6-yl)methylene)-7-(trifluoromethyl)indolin-2-one] | – | – | > 50 | – | > 50 | 5 to 50 | > 50 | – | > 50 | –
COc1ccc2c(c1)/C(=C\c1ccc3c(/C=C/c4cc[n+]([O-])cc4)n[nH]c3c1)C(=O)N2 [Example A117, 4-((E)-2-(6-((E)-(5-methoxy-2-oxoindolin-3-ylidene)methyl)-1H-indazol-3-yl)vinyl)pyridine 1-oxide] | – | – | – | < 50 | – | < 5 | < 5 | < 50 | – | < 5
O=C1Nc2ccccc2C1=Cc1ccc2c(/C=C/c3cnccn3)n[nH]c2c1 (mixture of isomers) [Example A104, (E and Z)-3-((3-((E)-2-(pyrazin-2-yl)vinyl)-1H-indazol-6-yl)methylene)-indolin-2-one] | – | – | – | < 50 | < 5 | < 5 | < 5 | < 50 | – | –
CC(=O)Nc1ccc2c(c1)/C(=C\c1ccc3cn[nH]c3c1)C(=O)N2 [Example A22, (E)-N-(3-((1H-indazol-6-yl)methylene)-2-oxoindolin-5-yl)acetamide] | – | > 50 | 5 to 50 | > 50 | < 5 | 5 to 50 | – | – | – | –
COc1ccc2c(c1)C(=Cc1ccc3c(/C=C/c4ccccn4)n[nH]c3c1)C(=O)N2 (mixture of isomers) [Example A87, (E and Z)-5-methoxy-3-((3-((E)-2-(pyridin-2-yl)vinyl)-1H-indazol-6-yl)methylene)indolin-2-one] | – | > 50 | – | < 50 | < 5 | < 5 | – | < 50 | – | –

The next lines start with results.

inhibition at 10 µM [1] [%] | inhibition at 10 µM [2] [%] | IC50 [3] [µM] | inhibition at 10 µM [4] [%] | IC50 [5, 6] [µM] | IC50 [1] [µM] | IC50 [2] [µM] | inhibition at 10 µM [3] [%] | IC50 ([4]; 60 μM ATP, 133 nM PLK2, read-out: PLK2 IC50 Ranges) [µM] | SMILES | IC50 [5] [µM]
> 50 | > 50 | > 50 | < 50 | < 5 | – | – | – | – | O=C1Nc2ccc(C(=O)Nc3ccccc3)cc2/C1=C\c1ccc2cn[nH]c2c1 [Example A11, (E)-3-((1H-indazol-6-yl)methylene)-2-oxo-N-phenylindoline-5-carboxamide] | –
– | – | – | < 50 | < 5 | < 5 | > 50 | < 50 | – | O=C1Nc2ccc(Cl)cc2C1=Cc1ccc2c(-c3cccnc3)n[nH]c2c1 (mixture of isomers) [Example A94, (E and Z)-5-chloro-3-((3-(pyridin-3-yl)-1H-indazol-6-yl)methylene)-indolin-2-one] | –
– | – | – | < 50 | < 5 | < 5 | < 5 | < 50 | – | O=C1Nc2ncccc2C1=Cc1ccc2c(/C=C/c3cccnc3)n[nH]c2c1 (mixture of isomers) [Example A114, (E and Z)-3-((3-((E)-2-(pyridin-3-yl)vinyl)-1H-indazol-6-yl)methylene)-1H-pyrrolo[2,3-b]pyridin-2(3H)-one] | –
– | > 50 | – | > 50 | < 5 | < 5 | – | > 50 | – | COc1ccc2c(c1)C(=Cc1ccc3cn[nH]c3c1)C(=O)N2 (mixture of isomers) [Example A83, (E and Z)-3-((1H-indazol-6-yl)methylene)-5-methoxyindolin-2-one] | –
– | – | – | < 50 | < 5 | < 5 | < 5 | < 50 | – | O=C1Nc2ccccc2/C1=C\c1ccc2c(/C=C/c3ccccc3)n[nH]c2c1 [Example A58, (E)-3-((E)-(3-styryl-1H-indazol-6-yl)methylene)indolin-2-one] | –
> 50 | > 50 | – | > 50 | < 5 | – | – | > 50 | – | O=C1Nc2ncc(Br)cc2C1=Cc1ccc2cn[nH]c2c1 (racemic) [Example A69, (E and Z)-3-((1H-indazol-6-yl)methylene)-5-bromo-1H-pyrrolo[2,3-b]pyridin-2(3H)-one] | –
– | – | 5 to 50 | < 50 | < 5 | < 5 | 5 to 50 | – | – | Nc1ccc2c(c1)NC(=O)/C2=C/c1ccc2cn[nH]c2c1 [Example A38, (E)-3-((1H-indazol-6-yl)methylene)-2-oxoindolin-6-aminium 2,2,2-trifluoroacetate] | –
– | – | – | < 50 | < 5 | < 5 | < 5 | < 50 | – | COc1ccc2c(c1)C(=Cc1ccc3c(/C=C/c4cccnc4)n[nH]c3c1)C(=O)N2 (mixture of isomers) [Example A115, (E and Z)-5-methoxy-3-((3-((E)-2-(pyridin-3-yl)vinyl)-1H-indazol-6-yl)methylene)indolin-2-one] | –
